How the values were obtained:
Assay type in all cases: binding
[1] = target: T1, STAT5a (Homo sapiens, UniProt P42229); experiment: Competitive fluorescence polarization (FP) assay, STAT5a; settings: for IC50: 125-177 nM STAT5a, 10 nM tracer peptide; for Ki: Ki calculated from IC50, mean ± SD, n = 3
T1 sequence (P42229 1-794): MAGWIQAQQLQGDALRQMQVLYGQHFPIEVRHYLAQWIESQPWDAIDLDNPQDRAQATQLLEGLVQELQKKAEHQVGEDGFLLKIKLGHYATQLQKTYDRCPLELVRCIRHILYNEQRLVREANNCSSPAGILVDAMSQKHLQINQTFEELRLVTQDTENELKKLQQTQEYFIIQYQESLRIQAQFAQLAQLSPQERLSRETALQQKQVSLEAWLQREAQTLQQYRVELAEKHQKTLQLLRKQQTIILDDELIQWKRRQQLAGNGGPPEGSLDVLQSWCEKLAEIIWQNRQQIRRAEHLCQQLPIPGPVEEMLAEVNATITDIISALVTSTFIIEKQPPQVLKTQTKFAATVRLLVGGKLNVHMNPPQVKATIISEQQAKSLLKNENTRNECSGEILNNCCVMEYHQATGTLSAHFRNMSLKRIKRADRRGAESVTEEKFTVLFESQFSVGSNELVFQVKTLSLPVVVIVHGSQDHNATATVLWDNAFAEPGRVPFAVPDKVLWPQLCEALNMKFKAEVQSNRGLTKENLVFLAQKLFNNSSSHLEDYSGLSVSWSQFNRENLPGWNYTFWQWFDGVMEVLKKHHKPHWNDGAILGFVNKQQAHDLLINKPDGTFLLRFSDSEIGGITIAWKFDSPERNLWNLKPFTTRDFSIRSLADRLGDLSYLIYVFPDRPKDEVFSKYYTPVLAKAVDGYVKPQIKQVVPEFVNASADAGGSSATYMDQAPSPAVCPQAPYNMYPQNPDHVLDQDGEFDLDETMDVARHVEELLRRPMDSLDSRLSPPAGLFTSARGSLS
Procedure: (§1) Fluorescence polarization assays
(§2) STAT4; 5-carboxyfluorescein-GpYDKPHVL for STAT1; 5-carboxyfluorescein-GpYLPQTV- […]
(§3) fluorescent-labeled peptide was added. Samples were transferred to 384-well microtiter plates […]
(§4) Experiments were carried out in triplicate. Percent binding was calculated based on a logarithmic curve fit using OriginPro 8G software. Conversion of IC50 values to Ki-values was […]
(§5) Error bars represent standard deviations. […]
(§6) Experiments were carried out in triplicate. […]

[2] = target: T2, STAT1 (Homo sapiens, UniProt P42224); experiment: Competitive fluorescence polarization (FP) assay, STAT1; settings: for IC50: 80-92 nM STAT1, 10 nM tracer peptide; for Ki: Ki calculated from IC50, mean ± SD, n = 3
T2 sequence (P42224 1-750): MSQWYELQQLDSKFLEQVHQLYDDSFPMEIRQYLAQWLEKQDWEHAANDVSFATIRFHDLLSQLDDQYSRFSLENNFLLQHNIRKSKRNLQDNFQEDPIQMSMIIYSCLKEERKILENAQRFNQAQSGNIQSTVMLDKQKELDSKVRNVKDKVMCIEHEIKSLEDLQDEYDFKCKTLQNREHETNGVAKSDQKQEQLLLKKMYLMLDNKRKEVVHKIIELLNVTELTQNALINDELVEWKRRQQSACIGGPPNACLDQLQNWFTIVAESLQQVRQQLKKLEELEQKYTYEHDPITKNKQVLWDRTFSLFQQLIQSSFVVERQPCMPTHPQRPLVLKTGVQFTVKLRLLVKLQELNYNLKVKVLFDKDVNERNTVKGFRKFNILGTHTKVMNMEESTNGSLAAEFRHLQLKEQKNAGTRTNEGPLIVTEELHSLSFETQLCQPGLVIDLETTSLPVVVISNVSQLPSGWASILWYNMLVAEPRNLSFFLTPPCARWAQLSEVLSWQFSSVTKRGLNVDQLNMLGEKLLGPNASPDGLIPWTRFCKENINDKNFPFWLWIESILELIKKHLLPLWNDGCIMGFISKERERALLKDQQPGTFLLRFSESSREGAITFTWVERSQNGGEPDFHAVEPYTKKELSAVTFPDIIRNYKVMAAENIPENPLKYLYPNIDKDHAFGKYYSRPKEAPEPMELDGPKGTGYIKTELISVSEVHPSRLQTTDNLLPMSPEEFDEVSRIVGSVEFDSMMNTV
Procedure: as §1, §2, §3, §4, §5, §6

[3] = target: T3, STAT5b (Homo sapiens, UniProt P51692); experiment: Competitive fluorescence polarization (FP) assay, STAT5b; settings: for inhibition at 100 µM: compound at 100 µM; for IC50: 59-85 nM STAT5b, 10 nM tracer peptide; for Ki: Ki calculated from IC50, mean ± SD, n = 3
T3 sequence (P51692 1-787): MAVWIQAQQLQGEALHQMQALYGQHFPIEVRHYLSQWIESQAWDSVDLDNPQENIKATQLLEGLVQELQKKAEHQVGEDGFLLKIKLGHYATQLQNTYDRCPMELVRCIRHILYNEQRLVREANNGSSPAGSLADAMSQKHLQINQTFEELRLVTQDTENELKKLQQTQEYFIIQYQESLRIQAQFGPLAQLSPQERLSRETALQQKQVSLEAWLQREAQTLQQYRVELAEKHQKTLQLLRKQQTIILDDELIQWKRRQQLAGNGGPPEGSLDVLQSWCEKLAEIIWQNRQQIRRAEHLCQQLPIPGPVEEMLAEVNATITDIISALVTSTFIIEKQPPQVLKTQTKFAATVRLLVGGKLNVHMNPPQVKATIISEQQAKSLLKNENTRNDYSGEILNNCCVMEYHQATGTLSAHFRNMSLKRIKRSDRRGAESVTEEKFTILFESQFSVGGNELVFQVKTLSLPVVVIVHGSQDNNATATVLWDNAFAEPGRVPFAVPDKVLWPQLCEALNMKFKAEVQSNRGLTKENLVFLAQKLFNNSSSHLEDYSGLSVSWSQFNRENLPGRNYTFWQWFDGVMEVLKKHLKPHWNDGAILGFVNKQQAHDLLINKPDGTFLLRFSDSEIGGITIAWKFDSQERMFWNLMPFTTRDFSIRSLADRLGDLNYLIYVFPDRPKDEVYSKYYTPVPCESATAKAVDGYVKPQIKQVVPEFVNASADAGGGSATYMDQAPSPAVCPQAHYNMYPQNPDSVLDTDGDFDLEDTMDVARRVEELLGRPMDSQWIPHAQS
Procedure: as §1, §2, §3, §4, §5, §6

Compound | IC50 [1] [µM] | Ki [1] [µM] | IC50 [2] [µM] | Ki [2] [µM] | inhibition at 100 µM [3] [%] | IC50 [3] [µM] | Ki [3] [µM] | inhibition at 200 µM ([3]; compound at 200 µM) [%]
O=P(O)(O)Oc1ccc2c(c1)oc1ccccc12 [compound 12] | 55 | 27 ± 1 | 34.3 | 16 ± 1 | 49 ± 1 | – | – | –
O=P(O)(O)Oc1ccc2c(c1)Cc1ccccc1-2 [compound 11] | 43 | 21 ± 1 | 14.3 | 6.5 ± 0.2 | – | 101 | 49 ± 6 | –
O=P(O)(O)Oc1ccc(-c2ccsc2)cc1 [8a] | 41 | 20 ± 0.2 | 20.2 | 9.2 ± 1 | – | 47 | 23 ± 1 | –
O=P(O)(O)Oc1ccc(-c2nccs2)cc1 [8c] | 122 | 61 ± 3 | 83 | 38 ± 3 | 26 ± 2 | – | – | 45 ± 1
Cc1cc(-c2ccc(OP(=O)(O)O)c(F)c2)cs1 [8f] | 28 | 14 ± 1 | 9 | 4.4 ± 0.4 | – | 36 | 18 ± 1 | –
O=P(O)(O)Oc1ccc(-c2cccs2)cc1 [8b] | 14.8 | 7.3 ± 0.9 | 19.5 | 8.9 ± 0.5 | – | 16.8 | 8.2 ± 0.4 | –
